Where two headings read alike, the source gives them in different places. Numbered stars: 1 amine (or outer) side, 2 acyl side, 3 side chain; on linkers, the order of the positions; unused ones are H or OH. Bridge positions count the residues as written; N and C are the ends. Square brackets hold non-standard residues; d marks the D form. Peptide text beside a SMILES is read from it. Phe(4-Br) = N[C@@H](Cc1ccc(Br)cc1)C(=O)O; 1Nal = N[C@@H](Cc1cccc2ccccc12)C(=O)O; 2Nal = N[C@@H](Cc1ccc2ccccc2c1)C(=O)O; TBMB = c1c(C[*:1])cc(C[*:3])cc1C[*:2]; Cha = N[C@@H](CC1CCCCC1)C(=O)O; Chg = N[C@H](C(=O)O)C1CCCCC1; Phg = N[C@H](C(=O)O)c1ccccc1; Tle = CC(C)(C)[C@H](N)C(=O)O
Biological target: T1, MT1-MMP hemopexin domain (Homo sapiens, UniProt P50281)
T1 construct: residues Cys319-Gly511 from the human gene; His6 (N); made in house; host or cells: HEK293 (transient), pEXPR-IBA42 vector
Test: Competition assay using fluorescence polarisation
Type: binding
Conditions: read-out: Kd
Description: Here, a pre-formed complex of PEX with the fluorescent PEX-binding tracer is titrated with free, non-fluoresceinated bicyclic peptide. Since all 17-69-based peptides are expected to bind at the same site, the titrant will displace the fluorescent tracer from PEX. Dissociation of the complex can be measured quantitatively, and the Kd of the competitor (titrant) to the target protein determined. The advantage of the competition method is that the affinities of non-fluoresceinated bicyclic peptides can be determined accurately and rapidly.
Subsequently, the non-fluorescent competitor bicyclic peptide (usually just the bicycle core sequence) is titrated, such that it displaces the fluorescent tracer from the target protein. The displacement of the tracer is measured and associated with a drop in fluorescence polarisation. The drop in fluorescence polarisation is proportional to the fraction of target protein bound with the non-fluorescent titrant, and thus is a measure of the affinity of titrant to target protein.
The raw data is fit to the analytical solution of the cubic equation that describes the equilibria between fluorescent tracer, titrant, and binding protein. The fit requires the value of the affinity of fluorescent tracer to the target protein, which can be determined separately by direct binding FP experiments (see previous section).

[1] = Table 2, FP method Competition, tracer A-(17-69-07)-A-Sar6-K(Fluorescein)
[2] = Table 8, substitutions at position 4
[3] = Table 9, tolerated substitutions at positions 9 and 11

SMILES | Kd [2] [nM] | also measured
CC[C@H](C)[C@@H]1NC(=O)[C@H](CC(=O)O)NC(=O)[C@H](Cc2ccc(O)cc2)NC(=O)[C@H](Cc2ccccc2)NC(=O)[C@H](CC(=O)O)NC(=O)[C@H](CCC(=O)O)NC(=O)[C@@H]2CSCc3cc(cc(c3)CSC[C@@H](C(=O)N[C@@H](C)C(N)=O)NC1=O)CSC[C@H](NC(=O)[C@H](C)N)C(=O)N[C@@H](Cc1ccccc1)C(=O)NCC(=O)N[C@@H](CCC(=O)O)C(=O)N[C@@H](Cc1ccccc1)C(=O)NCC(=O)N2 [17-69-02-N001, A-(17-69-02)-A] (H-ACFGEFGCEDFYDICA-NH2; linker 2-8-15 via TBMB) | – | Kd [1]: 191 nM
CC[C@H](C)[C@@H]1NC(=O)[C@H](CC(=O)O)NC(=O)[C@H](Cc2ccc(O)cc2)NC(=O)[C@H](Cc2ccccc2)NC(=O)[C@H](CC(=O)O)NC(=O)[C@H](CCC(=O)O)NC(=O)[C@@H]2CSCc3cc(cc(c3)CSC[C@@H](C(=O)N[C@@H](C)C(N)=O)NC1=O)CSC[C@H](NC(=O)[C@H](C)N)C(=O)N[C@@H](C(C)C)C(=O)N[C@@H](CC(N)=O)C(=O)N[C@@H](CCC(=O)O)C(=O)N[C@@H](Cc1ccccc1)C(=O)NCC(=O)N2 [17-69-03-N001, A-(17-69-03)-A] (H-ACVNEFGCEDFYDICA-NH2; linker 2-8-15 via TBMB) | – | Kd [1]: 16.7 nM
CC[C@H](C)[C@@H]1NC(=O)[C@H](CC(=O)O)NC(=O)[C@H](Cc2ccc(O)cc2)NC(=O)[C@H](Cc2ccccc2)NC(=O)[C@H](CC(=O)O)NC(=O)[C@H](CCC(=O)O)NC(=O)[C@@H]2CSCc3cc(cc(c3)CSC[C@@H](C(=O)N[C@@H](C)C(N)=O)NC1=O)CSC[C@H](NC(=O)[C@H](C)N)C(=O)N[C@@H](Cc1ccc(O)cc1)C(=O)N[C@@H](CC(N)=O)C(=O)N[C@@H](CCC(=O)O)C(=O)N[C@@H](Cc1ccccc1)C(=O)NCC(=O)N2 [17-69-07-N001, A-(17-69-07)-A] | – | Kd (Table 3, Competition, tracer A-(17-69-12)-A-Sar6-K(Fluorescein)): 1.65 ± 0.29 nM
CC[C@H](C)[C@@H]1NC(=O)[C@H](CC(=O)O)NC(=O)[C@H](Cc2ccc(O)cc2)NC(=O)[C@H](Cc2ccccc2)NC(=O)[C@H](CC(=O)O)NC(=O)[C@H](CCC(=O)O)NC(=O)[C@@H]2CSCc3cc(cc(c3)CSC[C@H](NC(C)=O)C(=O)N[C@@H](Cc3ccc(O)cc3)C(=O)N[C@@H](CC(N)=O)C(=O)N[C@@H](CCC(=O)O)C(=O)N[C@@H](Cc3ccc(O)cc3)C(=O)NCC(=O)N2)CSC[C@@H](C(N)=O)NC1=O [17-69-07-N057, Ac-(17-69-07) Tyr4] (Ac-CYNEYGCEDFYDIC-NH2; linker 1-7-14 via TBMB) | 1.78 ± 0.45 | –
CC[C@H](C)[C@@H]1NC(=O)[C@H](CC(=O)O)NC(=O)[C@H](Cc2ccc(O)cc2)NC(=O)[C@H](Cc2ccccc2)NC(=O)[C@H](CC(=O)O)NC(=O)[C@H](CCC(=O)O)NC(=O)[C@@H]2CSCc3cc(cc(c3)CSC[C@H](NC(C)=O)C(=O)N[C@@H](Cc3ccc(O)cc3)C(=O)N[C@@H](CC(N)=O)C(=O)N[C@@H](CCC(=O)O)C(=O)N[C@@H](Cc3ccccc3)C(=O)N3CCC[C@@H]3C(=O)N2)CSC[C@@H](C(N)=O)NC1=O [17-69-07-N059, Ac-(17-69-07) D-Pro5] (Ac-CYNEF[dP]CEDFYDIC-NH2; linker 1-7-14 via TBMB) | – | Kd (Table 6, D-Alanine substitutions in first loop): > 5000 nM
CC[C@H](C)[C@@H]1NC(=O)[C@H](CC(=O)O)NC(=O)[C@H](Cc2ccc(O)cc2)NC(=O)[C@H](Cc2ccccc2)NC(=O)[C@H](CC(=O)O)NC(=O)[C@H](CCC(=O)O)NC(=O)[C@@H]2CSCc3cc(cc(c3)CSC[C@H](NC(C)=O)C(=O)N[C@@H](Cc3ccc(O)cc3)C(=O)N[C@@H](CC(N)=O)C(=O)N[C@@H](CCC(=O)O)C(=O)N[C@@H](C3CCCCC3)C(=O)NCC(=O)N2)CSC[C@@H](C(N)=O)NC1=O [17-69-07-N065, Ac-(17-69-07) Chg4] (Ac-CYNE[Chg]GCEDFYDIC-NH2; linker 1-7-14 via TBMB) | > 5000 | –
CC[C@H](C)[C@@H]1NC(=O)[C@H](CC(=O)O)NC(=O)[C@H](Cc2ccc(O)cc2)NC(=O)[C@H](Cc2ccccc2)NC(=O)[C@H](CC(=O)O)NC(=O)[C@H](CCC(=O)O)NC(=O)[C@@H]2CSCc3cc(cc(c3)CSC[C@H](NC(C)=O)C(=O)N[C@@H](Cc3ccc(O)cc3)C(=O)N[C@@H](CC(N)=O)C(=O)N[C@@H](CCC(=O)O)C(=O)N[C@@H](Cc3cccc4ccccc34)C(=O)NCC(=O)N2)CSC[C@@H](C(N)=O)NC1=O [17-69-07-N067, Ac-(17-69-07) 1NAl4] (Ac-CYNE[1Nal]GCEDFYDIC-NH2; linker 1-7-14 via TBMB) | 0.36 ± 0.12 | –
CC[C@H](C)[C@@H]1NC(=O)[C@H](CC(=O)O)NC(=O)[C@H](Cc2ccc(O)cc2)NC(=O)[C@H](Cc2ccccc2)NC(=O)[C@H](CC(=O)O)NC(=O)[C@H](CCC(=O)O)NC(=O)[C@@H]2CSCc3cc(cc(c3)CSC[C@H](NC(C)=O)C(=O)N[C@@H](Cc3ccc(O)cc3)C(=O)N[C@@H](CC(N)=O)C(=O)N[C@@H](CCC(=O)O)C(=O)N[C@@H](Cc3ccc4ccccc4c3)C(=O)NCC(=O)N2)CSC[C@@H](C(N)=O)NC1=O [17-69-07-N068, Ac-(17-69-07) 2NAl4] (Ac-CYNE[2Nal]GCEDFYDIC-NH2; linker 1-7-14 via TBMB) | 0.7 ± 0.19 | –
CC[C@H](C)[C@@H]1NC(=O)[C@H](CC(=O)O)NC(=O)[C@H](Cc2ccc(O)cc2)NC(=O)[C@H](Cc2ccccc2)NC(=O)[C@H](CC(=O)O)NC(=O)[C@H](CCC(=O)O)NC(=O)[C@@H]2CSCc3cc(cc(c3)CSC[C@H](NC(C)=O)C(=O)N[C@@H](Cc3ccc(O)cc3)C(=O)N[C@@H](CC(N)=O)C(=O)N[C@@H](CCC(=O)O)C(=O)N[C@@H](c3ccccc3)C(=O)NCC(=O)N2)CSC[C@@H](C(N)=O)NC1=O [17-69-07-N071, Ac-(17-69-07) Phg4] (Ac-CYNE[Phg]GCEDFYDIC-NH2; linker 1-7-14 via TBMB) | 628 | –
CC[C@H](C)[C@@H]1NC(=O)[C@H](CC(=O)O)NC(=O)[C@H](Cc2ccc(O)cc2)NC(=O)[C@H](Cc2ccccc2)NC(=O)[C@H](CC(=O)O)NC(=O)[C@H](CCC(=O)O)NC(=O)[C@@H]2CSCc3cc(cc(c3)CSC[C@H](NC(C)=O)C(=O)N[C@@H](Cc3ccc(O)cc3)C(=O)N[C@@H](CC(N)=O)C(=O)N[C@@H](CCC(=O)O)C(=O)N[C@@H](C(C)(C)C)C(=O)NCC(=O)N2)CSC[C@@H](C(N)=O)NC1=O [17-69-07-N072, Ac-(17-69-07) tBuGly4] (Ac-CYNE[Tle]GCEDFYDIC-NH2; linker 1-7-14 via TBMB) | > 5000 | –
CC(=O)N[C@H]1CSCc2cc3cc(c2)CSC[C@H](NC(=O)CNC(=O)[C@H](Cc2ccccc2)NC(=O)[C@H](CCC(=O)O)NC(=O)[C@H](CC(N)=O)NC(=O)[C@H](Cc2ccc(O)cc2)NC1=O)C(=O)N[C@@H](CCC(=O)O)C(=O)N[C@@H](CC(=O)O)C(=O)N[C@@H](Cc1ccccc1)C(=O)N[C@@H](Cc1ccc(O)cc1)C(=O)N[C@@H](CC(=O)O)C(=O)N[C@@H](C(C)(C)C)C(=O)N[C@H](C(N)=O)CSC3 [17-69-07-N100, Ac-(17-69-07) tBuGly11] (Ac-CYNEFGCEDFYD[Tle]C-NH2; linker 1-7-14 via TBMB) | – | Kd [3]: 1.56 ± 1.14 nM
CC[C@H](C)[C@@H]1NC(=O)[C@H](CC(=O)O)NC(=O)[C@H](Cc2ccc(O)cc2)NC(=O)[C@H](Cc2ccccc2)NC(=O)[C@H](CC(=O)O)NC(=O)[C@H](CCC(=O)O)NC(=O)[C@@H]2CSCc3cc(cc(c3)CSC[C@H](NC(C)=O)C(=O)N[C@@H](Cc3ccc(O)cc3)C(=O)N[C@@H](CC(N)=O)C(=O)N[C@@H](CCC(=O)O)C(=O)N[C@@H](Cc3ccccc3)C(=O)N[C@H](CCCNC(=N)N)C(=O)N2)CSC[C@@H](C(N)=O)NC1=O [17-69-07-N120, Ac-(17-69-07) D-Arg5] (Ac-CYNEF[dR]CEDFYDIC-NH2; linker 1-7-14 via TBMB) | – | Kd (Table 7, substitutions at position 5): 4.24 ± 1.48 nM
CC[C@H](C)[C@@H]1NC(=O)[C@H](CC(=O)O)NC(=O)[C@H](Cc2ccc(Br)cc2)NC(=O)[C@H](Cc2ccccc2)NC(=O)[C@H](CC(=O)O)NC(=O)[C@H](CCC(=O)O)NC(=O)[C@@H]2CSCc3cc(cc(c3)CSC[C@H](NC(C)=O)C(=O)N[C@@H](Cc3ccc(O)cc3)C(=O)N[C@@H](CC(N)=O)C(=O)N[C@@H](CCC(=O)O)C(=O)N[C@@H](Cc3ccccc3)C(=O)NCC(=O)N2)CSC[C@@H](C(N)=O)NC1=O [17-69-07-N130, Ac-(17-69-07) 4BrPhe9] (Ac-CYNEFGCEDF[Phe(4-Br)]DIC-NH2; linker 1-7-14 via TBMB) | – | Kd [3]: 2.45 ± 1.08 nM
CC[C@H](C)[C@@H]1NC(=O)[C@H](CC(=O)O)NC(=O)[C@H](Cc2ccc(O)cc2)NC(=O)[C@H](Cc2ccccc2)NC(=O)[C@H](CC(=O)O)NC(=O)[C@H](CCC(=O)O)NC(=O)[C@@H]2CSCc3cc(cc(c3)CSC[C@H](NC(C)=O)C(=O)N[C@@H](Cc3ccc(O)cc3)C(=O)N[C@@H](CC(N)=O)C(=O)N[C@@H](CCC(=O)O)C(=O)N[C@@H](Cc3ccc(Cl)c(Cl)c3)C(=O)NCC(=O)N2)CSC[C@@H](C(N)=O)NC1=O [17-69-07-N137, Ac-(17-69-07) 3,4-DCPhe4] | 1.85 ± 2.45 | –
CC[C@H](C)[C@@H]1NC(=O)[C@H](CC(=O)O)NC(=O)[C@H](Cc2ccc(O)cc2)NC(=O)[C@H](Cc2ccccc2)NC(=O)[C@H](CC(=O)O)NC(=O)[C@H](CCC(=O)O)NC(=O)[C@@H]2CSCc3cc(cc(c3)CSC[C@H](NC(C)=O)C(=O)N[C@@H](Cc3ccc(O)cc3)C(=O)N[C@@H](CC(N)=O)C(=O)N[C@@H](CCC(=O)O)C(=O)N[C@@H](CC3CCCCC3)C(=O)NCC(=O)N2)CSC[C@@H](C(N)=O)NC1=O [17-69-07-N139, Ac-(17-69-07) Cha4] (Ac-CYNE[Cha]GCEDFYDIC-NH2; linker 1-7-14 via TBMB) | 362 | –

Source: US10532106B2 (priority 2014, dated 2020)
